Structures are written as SMILES.

In general, melting point refers to the temperature, or range, at which the solid turns liquid.

Compound `C=CCC(O)(C(=O)N[C@H]1CN2CCC1CC2)c1cccs1` (stereo partly shown) displayed a melting point of 54.4 to 58.3 °C.

Turning to `O=C(N[C@H]1CN2CCC1CC2)C(Cc1ccccc1)c1ccccc1` (stereo partly shown), the melting point amounted to 142 °C.

Turning to `O=C(N[C@H]1CN2CCC1CC2)C(O)(c1ccccc1)C1CCCC1` (stereo partly shown), the melting point is 69.8 to 73.3 °C.

In turn, `CCCCC(C(=O)N[C@H]1CN2CCC1CC2)c1ccccc1` (stereo partly shown) returned a melting point of 136 °C.

Turning to `C[N+]12CCC(CC1)C(NC(=O)C1c3ccccc3Oc3ccccc31)C2.[Br-]` (stereo not shown), the melting point was found to be 318 °C.

As for `C[N+]12CCC(CC1)C(NC(=O)C1(O)c3ccccc3-c3ccccc31)C2.[Br-]` (stereo not shown), the melting point fell in the range of 197.5 to 203.6 °C.

The compound `O=C(NC1C[N+]2(CCCOc3ccccc3)CCC1CC2)C1(O)c2ccccc2-c2ccccc21.[Br-]` (stereo not shown) returned a melting point of 264 °C.

The record behind these values is patent US7718670B2 (dated 2010).
